From PubChem BioAssay (NCI)
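48-hour exposure; five concentrations; linearly interpolated endpoints. GI50 is the concentration that inhibits growth by half. TGI: total growth inhibition.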

Key:
Assay in all cases: DTP human tumour cell line panel, 48 h
MOLT-4 leukemia = test system: MOLT-4 leukemia
IGROV1 ovarian = test system: IGROV1 ovarian
SF-268 CNS = test system: SF-268 CNS
HL-60(TB) leukemia = test system: HL-60(TB) leukemia
CCRF-CEM leukemia = test system: CCRF-CEM leukemia
OVCAR-3 ovarian = test system: OVCAR-3 ovarian
KM12 colon = test system: KM12 colon
OVCAR-4 ovarian = test system: OVCAR-4 ovarian
SR leukemia = test system: SR leukemia
EKVX NSCLC = test system: EKVX NSCLC
DU-145 prostate = test system: DU-145 prostate
UACC-257 melanoma = test system: UACC-257 melanoma
UO-31 renal = test system: UO-31 renal
ACHN renal = test system: ACHN renal
UACC-62 melanoma = test system: UACC-62 melanoma
SK-MEL-28 melanoma = test system: SK-MEL-28 melanoma
SNB-75 CNS = test system: SNB-75 CNS
OVCAR-5 ovarian = test system: OVCAR-5 ovarian
NCI-H522 lung = test system: NCI-H522 lung
TK-10 renal = test system: TK-10 renal
T-47D breast = test system: T-47D breast
SK-MEL-2 melanoma = test system: SK-MEL-2 melanoma
A498 renal = test system: A498 renal
M14 melanoma = test system: M14 melanoma
RXF 393 renal = test system: RXF 393 renal
MDA-MB-231 breast = test system: MDA-MB-231 breast
NCI/ADR-RES ovarian = test system: NCI/ADR-RES ovarian
CAKI-1 renal = test system: CAKI-1 renal
MALME-3M melanoma = test system: MALME-3M melanoma
HOP-92 NSCLC = test system: HOP-92 NSCLC
HOP-62 NSCLC = test system: HOP-62 NSCLC
SK-MEL-5 melanoma = test system: SK-MEL-5 melanoma
A549 NSCLC = test system: A549 NSCLC
NCI-H23 lung = test system: NCI-H23 lung
HS 578T breast = test system: HS 578T breast
HCC-2998 colon = test system: HCC-2998 colon
OVCAR-8 ovarian = test system: OVCAR-8 ovarian
786-0 renal = test system: 786-0 renal
LOX IMVI melanoma = test system: LOX IMVI melanoma
SK-OV-3 ovarian = test system: SK-OV-3 ovarian
RPMI-8226 leukemia = test system: RPMI-8226 leukemia
HT29 colon = test system: HT29 colon
MCF7 breast = test system: MCF7 breast
SN12C renal = test system: SN12C renal
SF-539 CNS = test system: SF-539 CNS
HCT-15 colon = test system: HCT-15 colon
MDA-MB-435 = test system: MDA-MB-435
NCI-H226 lung = test system: NCI-H226 lung
K-562 leukemia = test system: K-562 leukemia
HCT-116 colon = test system: HCT-116 colon
BT-549 breast = test system: BT-549 breast
SF-295 CNS = test system: SF-295 CNS
U251 CNS = test system: U251 CNS
PC-3 prostate = test system: PC-3 prostate
SW-620 colon = test system: SW-620 colon
NCI-H460 lung = test system: NCI-H460 lung
COLO 205 colon = test system: COLO 205 colon
SNB-19 CNS = test system: SNB-19 CNS

Cc1cn(-c2cc(NC(=O)c3cncc(C#Cc4cnc5ccc(O[C@@H]6CCOC6)nn45)c3)cc(C(F)(F)F)c2)cn1 gave a GI50 (MOLT-4 leukemia) of 64.2 nM, a TGI (MOLT-4 leukemia) of 678 nM and a GI50 (IGROV1 ovarian) of 103 nM. It also gave a TGI (IGROV1 ovarian) of 534 nM, a GI50 (SF-268 CNS) of 191 nM and a TGI (SF-268 CNS) of 1030 nM. The GI50 (HL-60(TB) leukemia) was 181 nM, the TGI (HL-60(TB) leukemia) was 613 nM and the GI50 (CCRF-CEM leukemia) was 48.6 nM. For the same compound, the GI50 (OVCAR-3 ovarian) was 217 nM, the TGI (OVCAR-3 ovarian) was 849 nM and the TGI (KM12 colon) was 1790 nM. For the same compound, the GI50 (OVCAR-4 ovarian) was 155 nM, the TGI (OVCAR-4 ovarian) was 1000 nM and the GI50 (SR leukemia) was 52.7 nM. It also gave a TGI (SR leukemia) of 936 nM, a GI50 (EKVX NSCLC) of 257 nM and a TGI (EKVX NSCLC) of 1270 nM. For the same compound, the GI50 (DU-145 prostate) was 222 nM, the TGI (DU-145 prostate) was 1580 nM and the GI50 (UACC-257 melanoma) was 467 nM. The TGI (UACC-257 melanoma) was 2750 nM, the GI50 (UO-31 renal) was 1450 nM and the TGI (UO-31 renal) was 3550 nM. The GI50 (ACHN renal) was 689 nM, the TGI (ACHN renal) was 2770 nM and the GI50 (UACC-62 melanoma) was 204 nM. For the same compound, the TGI (UACC-62 melanoma) was 949 nM, the GI50 (SK-MEL-28 melanoma) was 312 nM and the TGI (SK-MEL-28 melanoma) was 1090 nM. It also gave a GI50 (SNB-75 CNS) of less than 43.6 nM, a TGI (SNB-75 CNS) of 226 nM and a GI50 (OVCAR-5 ovarian) of 268 nM. It also gave a TGI (OVCAR-5 ovarian) of 1670 nM, a GI50 (NCI-H522 lung) of 111 nM and a TGI (NCI-H522 lung) of 330 nM. For the same compound, the GI50 (TK-10 renal) was 362 nM, the TGI (TK-10 renal) was 1560 nM and the GI50 (T-47D breast) was 442 nM. The TGI (T-47D breast) was 4260 nM, the GI50 (SK-MEL-2 melanoma) was 210 nM and the TGI (SK-MEL-2 melanoma) was 512 nM. The GI50 (A498 renal) was 504 nM, the TGI (A498 renal) was 1090 nM and the GI50 (M14 melanoma) was 138 nM. The TGI (M14 melanoma) was 353 nM, the GI50 (RXF 393 renal) was 215 nM and the TGI (RXF 393 renal) was 535 nM. For the same compound, the GI50 (MDA-MB-231 breast) was 74 nM, the TGI (MDA-MB-231 breast) was 403 nM and the GI50 (NCI/ADR-RES ovarian) was 6460 nM. The TGI (NCI/ADR-RES ovarian) was 23100 nM, the GI50 (CAKI-1 renal) was 495 nM and the TGI (CAKI-1 renal) was 1510 nM. For the same compound, the GI50 (MALME-3M melanoma) was 164 nM, the TGI (MALME-3M melanoma) was 693 nM and the GI50 (HOP-92 NSCLC) was 22.8 nM. For the same compound, the TGI (HOP-92 NSCLC) was 96.3 nM, the GI50 (HOP-62 NSCLC) was 183 nM and the TGI (HOP-62 NSCLC) was 883 nM. For the same compound, the GI50 (SK-MEL-5 melanoma) was 615 nM, the TGI (SK-MEL-5 melanoma) was 1710 nM and the GI50 (A549 NSCLC) was 206 nM. It also gave a TGI (A549 NSCLC) of 958 nM, a GI50 (NCI-H23 lung) of 190 nM and a TGI (NCI-H23 lung) of 784 nM. It also gave a GI50 (HS 578T breast) of 124 nM, a TGI (HS 578T breast) of 559 nM and a GI50 (HCC-2998 colon) of 320 nM. The TGI (HCC-2998 colon) was 1500 nM, the GI50 (OVCAR-8 ovarian) was 257 nM and the TGI (OVCAR-8 ovarian) was 1140 nM. It also gave a GI50 (786-0 renal) of 286 nM, a TGI (786-0 renal) of 936 nM and a GI50 (LOX IMVI melanoma) of 85.6 nM. It also gave a TGI (LOX IMVI melanoma) of 535 nM, a GI50 (SK-OV-3 ovarian) of 392 nM and a TGI (SK-OV-3 ovarian) of 2230 nM. The GI50 (RPMI-8226 leukemia) was 397 nM, the GI50 (HT29 colon) was 188 nM and the TGI (HT29 colon) was 947 nM. The GI50 (MCF7 breast) was 72.9 nM, the TGI (MCF7 breast) was 717 nM and the GI50 (SN12C renal) was 85.6 nM. It also gave a TGI (SN12C renal) of 601 nM, a GI50 (SF-539 CNS) of 39.8 nM and a TGI (SF-539 CNS) of 231 nM. It also gave a GI50 (HCT-15 colon) of 687 nM, a TGI (HCT-15 colon) of 2370 nM and a GI50 (MDA-MB-435) of 144 nM. It also gave a TGI (MDA-MB-435) of 714 nM, a GI50 (NCI-H226 lung) of 56.6 nM and a TGI (NCI-H226 lung) of 454 nM. The TGI (K-562 leukemia) was 3250 nM, the GI50 (HCT-116 colon) was 79.7 nM and the TGI (HCT-116 colon) was 616 nM. It also gave a GI50 (BT-549 breast) of 625 nM, a TGI (BT-549 breast) of 1730 nM and a GI50 (SF-295 CNS) of 355 nM. It also gave a TGI (SF-295 CNS) of 2410 nM, a GI50 (U251 CNS) of 246 nM and a TGI (U251 CNS) of 1020 nM. For the same compound, the GI50 (PC-3 prostate) was 280 nM, the TGI (PC-3 prostate) was 4210 nM and the GI50 (SW-620 colon) was 157 nM. For the same compound, the TGI (SW-620 colon) was 557 nM, the GI50 (NCI-H460 lung) was 144 nM and the TGI (NCI-H460 lung) was 699 nM. For the same compound, the GI50 (COLO 205 colon) was 75.7 nM, the TGI (COLO 205 colon) was 213 nM and the GI50 (SNB-19 CNS) was 261 nM. It also gave a TGI (SNB-19 CNS) of 1750 nM.
